Values after ≈ are worked out from the molar mass of the structure shown. Read-outs that look alike come from different tables or passages of the source.
How the values were obtained:
[1] = molecular target: histone deacetylase (HeLa nuclear extracts); assay: In vitro assay for inhibition of histone deacetylase with fluorescent-labelled substrate (Fluor de Lys); type: biochemical
Excerpt: The in vitro assay for inhibition of histone deacetylase (see example C.1) measures the inhibition of HDAC enzymatic activity obtained with the compounds of formula (I).
The HDAC Fluorescent Activity Assay/Drug Discovery Kit of Biomol (cat. No: AK-500-0001) was used. The HDAC Fluorescent Activity Assay is based on the Fluor de Lys (Fluorogenic Histone deAcetylase Lysyl) substrate and developer combination. The Fluor de Lys substrate, comprises an acetylated lysine side chain. Deacetylation of the substrate sensitizes the substrate so that, in the second step, treatment with the Fluor de Lys developer produces a fluorophore.
HeLa nuclear extracts (supplier: Biomol) were incubated at 60 μg/ml with 75 μM of substrate. The Fluor de Lys substrate was added in a buffer containing 25 mM Tris, 137 mM NaCl, 2.7 mM KCl and 1 mM MgCl2.6H2O at pH 7.4. After 30 min, 1 volume of the developer was added. The fluorophore was excited with 355 nm light and the emitted light (450 nm) was be detected on a fluorometric plate reader.
For each experiment, controls (containing HeLa nuclear extract and buffer), a blank incubation (containing buffer but no HeLa nuclear extract) and samples (containing compound dissolved in DMSO and further diluted in buffer and HeLa nuclear extract) were run in parallel. In first instance, compounds were tested at a concentration of 10^−5M. […] All sample were tested 4 times. In each test the blank value was subtracted from both the control and the sample values. The control sample represented 100% of substrate deactylation. For each sample the fluorescence was expressed as a percentage of the mean value of the controls. […] Herein the effects of test compounds are expressed as pIC50 (the negative log value of the IC50-value) (see Table F-2).

[2] = test system: A2780 ovarian carcinoma cells; assay: Antiproliferative activity on A2780 cells (MTT); type: cell-based; conditions: Homo sapiens, 96 h, four days of incubation, read-out: Cellular activity pIC50 C.2 (converted)
Experimental: Cellular activity of the compounds of formula (I) was determined on A2780 tumour cells using a colorimetric assay for cell toxicity or survival (Mosmann Tim, Journal of Immunological Methods 65: 55-63, 1983)(see example C.2).
All compounds tested were dissolved in DMSO and further dilutions were made in culture medium. Final DMSO concentrations never exceeded 0.1% (v/v) in cell proliferation assays. Controls contained A2780 cells and DMSO without compound and blanks contained DMSO but no cells. MTT was dissolved at 5 mg/ml in PBS. A glycine buffer comprised of 0.1 M glycine and 0.1 M NaCl buffered to pH 10.5 with NaOH (1 N) was prepared (all reagents were from Merck).
The human A2780 ovarian carcinoma cells (a kind gift from Dr. T. C. Hamilton [Fox Chase Cancer Centre, Pennsylvania, USA]) were cultured in RPMI 1640 medium supplemented with 2 mM L-glutamine, 50 μg/ml gentamicin and 10% fetal calf serum. Cells were routinely kept as monolayer cultures at 37° C. in a humidified 5% CO2 atmosphere. Cells were passaged once a week using a trypsin/EDTA solution at a split ratio of 1:40. All media and supplements were obtained from Life Technologies. Cells were free of mycoplasma contamination as determined using the Gen-Probe Mycoplasma Tissue Culture kit (supplier: BioMérieux).
Cells were seeded in NUNC™ 96-well culture plates (Supplier: Life Technologies) and allowed to adhere to the plastic overnight. Densities used for plating were 1500 cells per well in a total volume of 200 μl medium. After cell adhesion to the plates, medium was changed and drugs and/or solvents were added to a final volume of 200 μl. Following four days of incubation, medium was replaced by 200 μl fresh medium and cell density and viability was assessed using an MTT-based assay. To each well, 25 μl MTT solution was added and the cells were further incubated for 2 hours at 37° C. The medium was then carefully aspirated and the blue MTT-formazan product was solubilized by addition of 25 μl glycine buffer followed by 100 μl of DMSO. […] Within an experiment, the results for each experimental condition are the mean of 3 replicate wells. For initial screening purposes, compounds were tested at a single fixed concentration of 10^−6 M. For active compounds, the experiments were repeated to establish full concentration-response curves. For each experiment, controls (containing no drug) and a blank incubation (containing no cells or drugs) were run in parallel. The blank value was subtracted from all control and sample values. For each sample, the mean value for cell growth (in absorbance units) was expressed as a percentage of the mean value for cell growth of the control. […] Herein the effects of test compounds are expressed as pIC50 (the negative log value of the IC50-value)(see Table F-2).

[3] = Solubility at pH 2.3 (chemiluminescent nitrogen detector); type: physicochemical; conditions: pH 2.3, aqueous buffer; read-out: Solubility C.3.c. pH = 2.3
Excerpt: In a third method the solubility of a compound at different pH's can be measured with the use of a Chemiluminescent Nitrogen Detector (see example C.3.c).
The solubility of a compound, at pH 2.3, can also be measured with the use of a chemiluminescent nitrogen detector (see Table F-2).

[4] = test system: p21 promoter; assay: p21 induction in vivo method C.6.c (reporter tumour fluorescence in nude mice); conditions: 20-40 mpk daily during 6 days, orally or intraveinally, ranked inactive, weaker, identical or better than R306465
Experimental: The last method is an in vivo method wherein mice are used for screening the pharmaceutical activity of a compound. The above described stably transformed tumour cells can be administered to mice in an amount sufficient to effect production of a tumour. After the tumour cells had sufficient time to form a tumour, a potentially active compound can be administered to the animals and the effect of said compound on the tumour cells is evaluated by measuring the expression of the reporter gene. Incubation with pharmaceutical active compounds will result in an increase of reporter gene expression compared to the control levels (see example C.6.c.)
A selected clone was injected subcutaneous (10^7 cells/200 μl) into the flank of nude mice and a calliper measurable tumour was obtained after 12 days. From day 12 on, animals were dosed, orally or intraveinally, daily during 6 days with solvent and 20-40 mpk compound (4-10 animals each). Tumours were evaluated for fluorescence by the in-house developed Automated Whole Body Imaging System (Fluorescent stereomicroscope type Olympus® SZX12 equipped with a GFP filter and coupled to a CCD camera type JAI® CV-M90 controlled by a software package based on the IMAQ Vision Software from National Instruments®). As reference, compound R306465 (WO03/76422) was used.

[5] = not given; remark: listed apart in the source
[6] = Kinetic solubility in aqueous media C.3.a (nephelometer); type: physicochemical; conditions: aqueous buffer, kinetic from dmso stock; phosphate citrate buffer pH 7.4, turbidity; read-out: Kinetic solubility score (C.3.a)
Experimental: The solubility of a compound measures the ability of a compound to stay in solution. In a first method the ability of a compound to stay in aqueous solution upon dilution (see example C.3.a) is measured. DMSO-stock solutions are diluted with a single aqueous buffer solvent in 3 consecutive steps. For every dilution turbidity is measured with a nephelometer.
In the first dilution step, 10 μl of a concentrated stock-solution of the active compound, solubilized in DMSO (5 mM), was added to 100 μl phosphate citrate buffer pH 7.4 and mixed. In the second dilution step, an aliquot (20 μl) of the first dilution step was further dispensed in 100 μl phosphate citrate buffer pH 7.4 and mixed. Finally, in the third dilution step, a sample (20 μl) of the second dilution step was further diluted in 100 μl phosphate citrate buffer pH 7.4 and mixed. All dilutions were performed in 96-well plates. Immediately after the last dilution step the turbidity of the three consecutive dilution steps were measured with a nephelometer. Dilution was done in triplicate for each compound to exclude occasional errors. Based on the turbidity measurements a ranking is performed into 3 classes. Compounds with high solubility obtained a score of 3 and for this compounds the first dilution is clear. Compounds with medium solubility obtained a score of 2. […]

[7] = Metabolic stability with rat hepatocytes cell culture C.5.b; type: in vitro ADME; conditions: male, Sprague Dowley, rat hepatocyte cell cultures, read-out: in vitro half-life
Excerpt: Metabolism of drugs means that a lipid-soluble xenobiotic or endobiotic compound is enzymatically transformed into (a) polar, water-soluble, and excretable metabolite(s). The major organ for drug metabolism is the liver. […] However, some metabolites may have enhanced activity or toxic effects. Thus drug metabolism may include both “detoxication” and “toxication” processes. One of the major enzyme systems that determine the organism's capability of dealing with drugs and chemicals is represented by the cytochrome P450 monooxygenases, which are NADPH dependent enzymes. Metabolic stability of compounds can be determined in vitro with the use of subcellular human tissue (see example C.5.a.). Here metabolic stability of the compounds is expressed as % of drug metabolised after 15 minutes incubation of these compounds with microsomes. Quantitation of the compounds was determined by LC-MS analysis. Metabolic stability of compounds can also be determined by calculating the half live of compounds in rat hepatocyte cells (see example C.5.b.).
Rat hepatocytes were isolated from male Sprague Dowley rats. The compounds were dissolved to a 5 mM stock solution in 100% DMSO and incubated at a final concentration of 5 μM for 0, 15, 30, 60 and 120 min with rat hepatocyte cell cultures (0.5 million viable cells/0.5 ml) using 24-well plates.
Samples were prepared for LC-MS by addition of two volumes of DMSO. The samples were thoroughly shaken and subsequently centrifuged at 900 g for 10 min (room temperature). All experiments were performed in triplicate. Of the resulting supernatant 50 μl was analysed by LC-MS.
For LC-MS, elution of samples was performed on a Hypersil BDS C18 column (50×4.6 mm, 5 μm, Thermohypersil, UK). […]
Total injection volume of samples was 50 μL. […] The mass spectrometer was operated in positive ion mode in SIM adjusted to the mass of M+H with a scan width of 1 Da for quantification purposes. […] The metabolic stability of compounds in rat hepatocytes was expressed as in vitro half-lives. […]

| Enzymatic activity pIC50 C.1 [1] | IC50 [2] | solubility [3] | melting point [5] | half-life at 5 μM [7] | SMILES | further results |
| --- | --- | --- | --- | --- | --- | --- |
|  |  |  |  |  | COc1cc(N)c(Cl)cc1C(=O)NC1CCN(CCCOc2ccc(F)cc2)CC1OC (centres unmarked) [Cisapride] | % metabolism (human, 15 min, 5 μM): 45% |
| 8.4 | 0.02 µM | 2500 µg/mL (≈ 6.32 mM) | 197 °C |  | Cn1nc(CNCC2CCN(c3ncc(C(=O)NO)cn3)CC2)c2ccccc21 [Compound 1] | tumour fluorescence ranked against R306465 [4]: better than R306465 |
| 8.1 | 0.251 µM | 2100 µg/mL (≈ 5.3 mM) | 206 °C |  | Cn1nnc2ccc(CNCC3CCN(c4ncc(C(=O)NO)cn4)CC3)cc21 [Compound 2] | solubility kinetic [6]: > 455 µM |
| 9.4 | 0.0794 µM | 2200 µg/mL (≈ 5.77 mM) |  | 30 to 55 min | O=C(NO)c1cnc(N2CCC(CNCc3n[nH]c4ccccc34)CC2)nc1 [Compound 22] |  |
|  |  |  |  | 8 min | O=C(NO)c1cnc(N2CCN(S(=O)(=O)c3ccc4ccccc4c3)CC2)nc1 [Compound R306465, reference compound] |  |
|  |  |  |  |  | CCCO [propanol] | % metabolism (15 min incubation with microsomes, compound 5 μM): 25% |
